Results published in paper PMC9460261, “Need for a Standardized Translational Drug Development Platform: Lessons Learned from the Repurposing of Drugs for COVID-19” (Microorganisms, 2022).
pEC50, pIC50: −log10 of the molar value. Like-named read-outs stand apart in the source and are kept apart here.

What was measured:
[1] = test system: SARS-CoV-2; type: in vivo, Syrian hamster; conditions: for Activity in SARS-CoV-2 Hamster Model: doses, frequency, duration as in Table 1
[2] = test system: SARS-CoV-2 in Vero cells
[3] = test system: SARS-CoV-2 in Vero cells; assay: microbe, parasite or virus in culture; conditions: Severe acute respiratory syndrome coronavirus 2, Vero
[4] = Population PK model in human (digitized literature data); conditions: modelled from digitized data
[5] = test system: SARS-CoV-2; conditions: read-out: SARS-CoV-2 EC50, cited from earlier work
[6] = female, LGV Golden Syrian, hamster, in vivo
[7] = in vitro; conditions: hamster, plasma
[8] = in vitro; conditions: African green monkey, Selectivity Index (Vero cells)
[9] = test system: SARS-CoV-2 in Calu-3 cells; assay: microbe, parasite or virus in culture; conditions: Severe acute respiratory syndrome coronavirus 2, Calu-3, read-out: Calu-3 cells Average IC50
[10] = test system: SARS-CoV-2 in Calu-3 cells
[11] = in vitro; conditions: bovine
[12] = in vitro; conditions: human, plasma
[13] = Population PK model from satellite PK studies in hamster
[14] = cited from earlier work
[15] = Binding to antiviral assay medium by Rapid Equilibrium Dialysis; conditions: bovine
[16] = Plasma protein binding, hamster; conditions: hamster, plasma
[17] = test system: SARS-CoV-2 in A549-Dual hACE2-TMPRSS2 cells; parameters: method as in Abdelnabi et al., 2022 [60]; conditions: ref Abdelnabi et al., 2022 [60]; cited from earlier work
[18] = read-out: VERO cells Average IC50, With Pgp pump inhibitor, 2 μM CP-100356, * one replicate only
[19] = read-out: VERO cells Average IC50, Without Pgp pump inhibitor, * one replicate only
[20] = human, ref 68 (ambroxol), 71-73 (cepharanthine)
[21] = human, ref 68 (ambroxol), 71-73 (cepharanthine), 78 (fluvoxamine), 80 (molnupiravir)
[22] = hamster of the study's median weight (80-131 g)

SMILES	Activity in SARS-CoV-2 Hamster Model [1]	Activity In Vitro; Potency EC50 or IC50 < 10 µM; Vero Cells [2]	Toxicity observed (^T), Vero Cells [2]	pIC50 [3, 18]	pIC50 [3, 19]	pEC50 ([5]; host cell VeroE6/TMPRSS2)	CL/F, elimination clearance, population estimate (%RSE) [6]	KA, absorption rate constant, population estimate (%RSE) [6]	VC/F, central volume of distribution, population estimate (%RSE) [6]	fraction unbound [7]	selectivity ratio ([8]; With Pgp pump inhibitor)	selectivity ratio ([8]; Without Pgp pump inhibitor)	pIC50 [9]	Activity In Vitro; Potency EC50 or IC50 < 10 µM; Calu-3 Cells [10]	fraction unbound [11]	fraction unbound [12]	KA, absorption rate constant, population estimate (%RSE) [13, 22]	Q/F (Q1/F), inter-compartment clearance, population estimate (%RSE) [13, 22]	VP/F, peripheral volume of distribution, population estimate (%RSE) [13, 22]	fraction unbound [15]	further results
COc1ccc2cc1Oc1ccc(cc1)C[C@H]1c3c(cc4c(c3Oc3cc5c(cc3OC)CCN(C)[C@@H]5C2)OCO4)CCN1C [Cepharanthine, cepharanthine]	No	Yes (Potency EC50 or IC50 < 10 µM)	Yes ^T	5.72	5.35	6.46	804 (25.0) mL/h	1.52 (27.0) h-1	66400 (12.5) mL	0.018	17.2	9.7	< 4.30	No (Potency EC50 or IC50 < 10 µM)	0.643	0.02	–	–	–	–	F, population estimate (%RSE) ([4]; adult 70 kg): 0.116 (7.3%); KA, population estimate (%RSE) ([4]; adult 70 kg): 0.187 (11.0%) h-1; Q2/F, population estimate (%RSE) ([4]; adult 70 kg): 131 (14.2%) L/h; VP2/F, population estimate (%RSE) ([4]; adult 70 kg): 438 (26.5%) L; Q/F (Q1/F), population estimate (%RSE) [4, 20]: 258 (7.6%) L/h; VP/F (VP1/F), population estimate (%RSE) [4, 20]: 9190 (7.3%) L; CL/F, population estimate (%RSE) [4, 21]: 74.4 (5.5%) L/h; VC/F, population estimate (%RSE) [4, 21]: 110 (10.8%) L
CC(C)/N=c1\cc2n(-c3ccc(Cl)cc3)c3ccccc3nc-2cc1Nc1ccc(Cl)cc1 [Clofazimine, clofazimine]	No	Yes (Potency EC50 or IC50 < 10 µM)	Yes ^T	–	–	–	49.4 (7.2) mL/h	–	356 (11.9) mL	< 0.001	208	8.4	5.08	Yes (Potency EC50 or IC50 < 10 µM)	0.003	< 0.001	0.38 (11.0) h-1	235 (10.4) mL/h	2250 (28.0) mL	–	Dose effect on F (power) ([13]; covariate, hamster model): -0.109 (16.2); Dose effect on KA (exp) ([13]; covariate, hamster model): -0.0094 (20.4); Q2/F, population estimate (%RSE) ([13]; hamster 120 g): 90.5 (20.6) mL/h; VP2/F, population estimate (%RSE) ([13]; hamster 120 g): 7390 (14.9) mL; pIC50 ([3]; read-out: VERO cells Average IC50, With Pgp pump inhibitor): 6.70; pIC50 ([3]; read-out: VERO cells Average IC50, Without Pgp pump inhibitor): 5.23; pEC50 ([5]; host cell Vero E6, ref 39): 6.51
COC(=O)N[C@H](C(=O)N1CCC[C@H]1c1nc(-c2ccc(-c3ccc(-c4c[nH]c([C@@H]5CCCN5C(=O)[C@@H](NC(=O)OC)C(C)C)n4)cc3)cc2)c[nH]1)C(C)C [Daclatasvir, daclatasvir]	No	–	–	5.12	4.70	–	–	–	–	–	–	–	4.61	No (Potency EC50 or IC50 < 10 µM)	–	–	0.415 (5.84) h-1	33.4 (25.5) mL/h	438 (25.6) mL	0.209	Activity in SARS-CoV-2 Hamster Model ([1]; listed as daclatasvir): no activity; Fraction unbound in plasma, human ([14]; literature, ref 61 (N-desethylamodiaquine), 62 (atazanavir), 63 (daclatasvir), 64 (favipiravir), 65 (ivermectin), 66 (tizoxanide), 67 (sofosbuvir)): 1%; Activity In Vitro; Potency EC50 or IC50 < 10 µM; Vero Cells ([2]; in the presence of a P-glycoprotein inhibitor (^Pgp)): Yes (Potency EC50 or IC50 < 10 µM); CL/F, elimination clearance, population estimate (%RSE) [13, 22]: 239 (19.6) mL/h; VC/F, central volume of distribution, population estimate (%RSE) [13, 22]: 86.3 (27.0) mL; pEC50 ([5]; host cell Calu-3): 5.96; pEC50 ([5]; host cell HuH-7): 6.22; pEC50 ([5]; host cell Vero, ref 26): 6.10; fraction unbound [16]: 0.055; selectivity ratio ([8]; With Pgp pump inhibitor, T: toxicity observed): > 6.6; selectivity ratio ([8]; Without Pgp pump inhibitor, T: toxicity observed): > 2.5
NC(=O)c1nc(F)c[nH]c1=O [Favipiravir, favipiravir]	Yes	No (Potency EC50 or IC50 < 10 µM)	–	< 4.30	< 4.30	< 4.19	58.2 (6.06) mL/h	0.774 (7.71) h-1	11.7 (14.7) mL	0.821	–	–	< 4.30	No (Potency EC50 or IC50 < 10 µM)	–	–	–	–	–	0.993	Activity in SARS-CoV-2 Hamster Model ([1]; listed as favipiravir): demonstrated in vivo efficacy; Fraction unbound in plasma, human ([14]; human, plasma): 46%; pEC50 ([5]; host cell Vero E6, ref 17): 3.35; pEC50 ([5]; host cell Vero E6, ref 31): < 4.00; pEC50 ([5]; host cell Vero E6, ref 32): < 4.30; pEC50 ([5]; host cell Vero E6, ref 34): 3.93; pEC50 ([5]; host cell Vero E6, ref 35): 4.21; pEC50 ([5]; host cell Vero, ref 25): < 3.30; pEC50 ([5]; host cell Vero, ref 36): < 4.70; Q/F (Q1/F), inter-compartment clearance, population estimate (%RSE) [6]: 1.80 (12.7) mL/h; VP/F, peripheral volume of distribution, population estimate (%RSE) [6]: 11.6 (8.7) mL
CC(C)(C)[C@H](NC(=O)C(F)(F)F)C(=O)N1C[C@H]2[C@@H]([C@H]1C(=O)N[C@H](C#N)C[C@@H]1CCNC1=O)C2(C)C [Nirmatrelvir, nirmatrelvir]	Yes	Yes (Potency EC50 or IC50 < 10 µM)	–	> 7.30	5.47	–	–	–	–	–	–	–	6.52	Yes (Potency EC50 or IC50 < 10 µM)	–	–	–	–	–	0.898	pEC50 [17]: 6.96; Activity in SARS-CoV-2 Hamster Model ([1]; listed as nirmatrelvir): demonstrated in vivo efficacy; Lung TCID50 of SARS-CoV-2 in the hamster model ([1]; hamster, in vivo): significant reduction; fraction unbound [16]: 0.621
